Several values for one entry are separate records, joined by “and”; a condition that tells them apart may be missing. Equal entries are not always repeated. Inconclusive results are not listed.
System: Lewis lung carcinoma i.m., BDF1 mice, T/C %
Assay: NCI In Vivo Anticancer Drug Screen. Data for tumor model Lewis Lung Carcinoma (intramuscular) in B6D2F1 (BDF1) mice
Summary of the method: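 Antitumour activity is assessed in transplanted-tumour mice. Endpoint is survival or tumour size, normalised to vehicle-dosed controls (T/C).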

O=NN(CCCl)C(=O)NCCCl
T/C (endpoint: mean tumor weight, dose: 1.5 mg/kg/injection, schedule: Q01DX011 (ip), vehicle: other, higher = larger tumour): 57 % of control
T/C (endpoint: mean tumor weight, dose: 3.0 mg/kg/injection, schedule: Q01DX011 (ip), vehicle: other, higher = larger tumour): 47 % of control
T/C (endpoint: mean tumor weight, dose: 6.0 mg/kg/injection, schedule: Q01DX011 (ip), vehicle: other, higher = larger tumour): 12 % of control
T/C (endpoint: mean tumor weight, dose: 14.0 mg/kg/injection, schedule: Q01DX001 (sc), vehicle: saline, higher = larger tumour): 76 % of control
T/C (endpoint: mean tumor weight, dose: 23.0 mg/kg/injection, schedule: Q01DX001 (sc), vehicle: saline, higher = larger tumour): 65 % of control
T/C (endpoint: mean tumor weight, dose: 39.0 mg/kg/injection, schedule: Q01DX001 (sc), vehicle: saline, higher = larger tumour): 35 % of control
T/C (endpoint: mean tumor weight, dose: 65.0 mg/kg/injection, schedule: Q01DX001 (sc), vehicle: saline, higher = larger tumour): 22 % of control
T/C (endpoint: median survival time, dose: 1.0 mg/kg/injection, schedule: Q01DX009 (ip), vehicle: saline + alcohol, higher = longer survival): 113 % of control
T/C (endpoint: median survival time, dose: 1.25 mg/kg/injection, schedule: Q01DX015 (ip), vehicle: saline, higher = longer survival): 108 % of control
T/C (endpoint: median survival time, dose: 1.5 mg/kg/injection, schedule: Q01DX011 (ip), vehicle: other, higher = longer survival): 102 % of control
T/C (endpoint: median survival time, dose: 1.5 mg/kg/injection, schedule: Q01DX011 (ip), vehicle: saline, higher = longer survival): 110 % of control
T/C (endpoint: median survival time, dose: 2.0 mg/kg/injection, schedule: Q01DX011 (ip), vehicle: saline, higher = longer survival): 97 % of control
T/C (endpoint: median survival time, dose: 2.5 mg/kg/injection, schedule: Q01DX015 (ip), vehicle: saline, higher = longer survival): 124 % of control
T/C (endpoint: median survival time, dose: 3.0 mg/kg/injection, schedule: Q01DX011 (ip), vehicle: other, higher = longer survival): 104 % of control
T/C (endpoint: median survival time, dose: 4.0 mg/kg/injection, schedule: Q01DX009 (ip), vehicle: saline + alcohol, higher = longer survival): 113 % of control
T/C (endpoint: median survival time, dose: 4.0 mg/kg/injection, schedule: Q01DX011 (ip), vehicle: saline, higher = longer survival): 115 % of control
T/C (endpoint: median survival time, dose: 5.0 mg/kg/injection, schedule: Q01DX001 (ip), vehicle: saline + alcohol, higher = longer survival): 107 % of control
T/C (endpoint: median survival time, dose: 5.0 mg/kg/injection, schedule: Q01DX015 (ip), vehicle: saline, higher = longer survival): 111 % of control
T/C (endpoint: median survival time, dose: 5.0 mg/kg/injection, schedule: Q07DX003 (ip), vehicle: saline, higher = longer survival): 95 % of control
T/C (endpoint: median survival time, dose: 5.0 mg/kg/injection, schedule: Q16DX002 (ip), vehicle: saline, higher = longer survival): 167 % of control
T/C (endpoint: median survival time, dose: 5.0 mg/kg/injection, schedule: Q## X002 (ip), vehicle: saline, higher = longer survival): 168 % of control
T/C (endpoint: median survival time, dose: 6.0 mg/kg/injection, schedule: Q01DX011 (ip), vehicle: saline, higher = longer survival): 157 % of control
T/C (endpoint: median survival time, dose: 8.0 mg/kg/injection, schedule: Q01DX011 (ip), vehicle: saline, higher = longer survival): 102 % of control and 110 % of control
T/C (endpoint: median survival time, dose: 8.4 mg/kg/injection, schedule: Q01DX001 (ip), vehicle: saline, higher = longer survival): 158 % of control and 160 % of control
T/C (endpoint: median survival time, dose: 8.4 mg/kg/injection, schedule: Q06DX002 (ip), vehicle: saline, higher = longer survival): 105 % of control
T/C (endpoint: median survival time, dose: 8.4 mg/kg/injection, schedule: Q16DX002 (ip), vehicle: saline, higher = longer survival): 89 % of control
T/C (endpoint: median survival time, dose: 8.4 mg/kg/injection, schedule: Q## X002 (ip), vehicle: saline, higher = longer survival): 87 % of control
T/C (endpoint: median survival time, dose: 10.0 mg/kg/injection, schedule: Q01DX001 (ip), vehicle: saline + alcohol, higher = longer survival): 111 % of control
T/C (endpoint: median survival time, dose: 10.0 mg/kg/injection, schedule: Q07DX003 (ip), vehicle: saline, higher = longer survival): 94 % of control
T/C (endpoint: median survival time, dose: 14.0 mg/kg/injection, schedule: Q01DX001 (ip), vehicle: saline, higher = longer survival): 156 % of control and 157 % of control
T/C (endpoint: median survival time, dose: 14.0 mg/kg/injection, schedule: Q01DX001 (sc), vehicle: saline, higher = longer survival): 112 % of control
T/C (endpoint: median survival time, dose: 14.0 mg/kg/injection, schedule: Q06DX002 (ip), vehicle: saline, higher = longer survival): 102 % of control
T/C (endpoint: median survival time, dose: 14.0 mg/kg/injection, schedule: Q07DX003 (ip), vehicle: saline, higher = longer survival): 102 % of control
T/C (endpoint: median survival time, dose: 16.0 mg/kg/injection, schedule: Q01DX011 (ip), vehicle: saline, higher = longer survival): 91 % of control
T/C (endpoint: median survival time, dose: 20.0 mg/kg/injection, schedule: Q01DX001 (ip), vehicle: saline + alcohol, higher = longer survival): 123 % of control
T/C (endpoint: median survival time, dose: 20.0 mg/kg/injection, schedule: Q07DX003 (ip), vehicle: saline, higher = longer survival): 111 % of control
T/C (endpoint: median survival time, dose: 23.0 mg/kg/injection, schedule: Q01DX001 (ip), vehicle: saline, higher = longer survival): 208 % of control and 210 % of control
T/C (endpoint: median survival time, dose: 23.0 mg/kg/injection, schedule: Q06DX002 (ip), vehicle: saline, higher = longer survival): 109 % of control
T/C (endpoint: median survival time, dose: 23.0 mg/kg/injection, schedule: Q07DX003 (ip), vehicle: saline, higher = longer survival): 108 % of control
T/C (endpoint: median survival time, dose: 39.0 mg/kg/injection, schedule: Q01DX001 (ip), vehicle: saline, higher = longer survival): 216 % of control and 218 % of control
T/C (endpoint: median survival time, dose: 39.0 mg/kg/injection, schedule: Q06DX002 (ip), vehicle: saline, higher = longer survival): 102 % of control
T/C (endpoint: median survival time, dose: 39.0 mg/kg/injection, schedule: Q16DX002 (ip), vehicle: saline, higher = longer survival): 61 % of control and 101 % of control
T/C (endpoint: median survival time, dose: 39.0 mg/kg/injection, schedule: Q## X002 (ip), vehicle: saline, higher = longer survival): 104 % of control
T/C (endpoint: median survival time, dose: 40.0 mg/kg/injection, schedule: Q01DX001 (ip), vehicle: saline + alcohol, higher = longer survival): 64 % of control
T/C (endpoint: median survival time, dose: 65.0 mg/kg/injection, schedule: Q01DX001 (ip), vehicle: saline, higher = longer survival): 38 % of control
T/C (endpoint: median survival time, dose: 65.0 mg/kg/injection, schedule: Q06DX002 (ip), vehicle: saline, higher = longer survival): 45 % of control
T/C (endpoint: median survival time, dose: 65.0 mg/kg/injection, schedule: Q16DX002 (ip), vehicle: saline, higher = longer survival): 24 % of control

Nc1cc(S(N)(=O)=O)ccc1SSc1ccc(S(N)(=O)=O)cc1N
T/C (endpoint: mean tumor weight (est.), dose: 62.5 mg/kg/injection, schedule: Q01DX011 (ip), vehicle: saline with Tween-80, higher = larger tumour): 65 % of control
T/C (endpoint: mean tumor weight (est.), dose: 125.0 mg/kg/injection, schedule: Q01DX011 (ip), vehicle: saline with Tween-80, higher = larger tumour): 24 % of control
T/C (endpoint: median survival time, dose: 62.5 mg/kg/injection, schedule: Q01DX011 (ip), vehicle: saline with Tween-80, higher = longer survival): 103 % of control
T/C (endpoint: median survival time, dose: 125.0 mg/kg/injection, schedule: Q01DX011 (ip), vehicle: saline with Tween-80, higher = longer survival): 98 % of control

CCn1cnc2c(=S)nc[nH]c21
T/C (endpoint: mean tumor weight (est.), dose: 25.0 mg/kg/injection, schedule: Q01DX011 (ip), vehicle: Klucel (hydroxypropylcellulose) (HPC), higher = larger tumour): 110 % of control
T/C (endpoint: mean tumor weight, dose: 1.56 mg/kg/injection, schedule: Q01DX011 (ip), vehicle: steriod suspending solution, higher = larger tumour): 81 % of control
T/C (endpoint: mean tumor weight, dose: 6.25 mg/kg/injection, schedule: Q01DX011 (ip), vehicle: steriod suspending solution, higher = larger tumour): 86 % of control
T/C (endpoint: median survival time, dose: 0.78 mg/kg/injection, schedule: Q01DX011 (ip), vehicle: Klucel (hydroxypropylcellulose) (HPC), higher = longer survival): 100 % of control
T/C (endpoint: median survival time, dose: 1.56 mg/kg/injection, schedule: Q01DX011 (ip), vehicle: Klucel (hydroxypropylcellulose) (HPC), higher = longer survival): 104 % of control
T/C (endpoint: median survival time, dose: 3.12 mg/kg/injection, schedule: Q01DX011 (ip), vehicle: Klucel (hydroxypropylcellulose) (HPC), higher = longer survival): 106 % of control
T/C (endpoint: median survival time, dose: 6.25 mg/kg/injection, schedule: Q01DX011 (ip), vehicle: Klucel (hydroxypropylcellulose) (HPC), higher = longer survival): 102 % of control and 108 % of control
T/C (endpoint: median survival time, dose: 12.5 mg/kg/injection, schedule: Q01DX011 (ip), vehicle: Klucel (hydroxypropylcellulose) (HPC), higher = longer survival): 106 % of control
T/C (endpoint: median survival time, dose: 25.0 mg/kg/injection, schedule: Q01DX011 (ip), vehicle: Klucel (hydroxypropylcellulose) (HPC), higher = longer survival): 95 % of control and 104 % of control
